Results reported in US20230000870A1, “METHODS OF TREATING CANCER IN BIOMARKER-IDENTIFIED PATIENTS WITH INHIBITORS OF CYCLIN-DEPENDENT KINASE 7 (CDK7)” (Syros Pharmaceuticals, Inc., priority 2019, published 2023).

Tests used:
CDK2/Cyclin E1 complex = CDK2/Cyclin E1 complex (Homo sapiens, UniProt P24941); test: CDK2 kinase inhibition assay (Caliper/LabChip EZ Reader); assay type: biochemical; details: CDK2/Cyclin E1 0.5 nM, ATP 2 mM, 35 min at 27° C.
Summary of the method: (§1)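 Caliper/LabChip mobility-shift kinase assays at 27° C. CDK9/Cyclin T1 8 nM with 2 μM 5-FAM-CDK9tide, 10 mM MgCl2, 15 min; CDK12/Cyclin K 50 nM with 5-FAM-CDK9tide 2 μM, 2 mM MgCl2, 3 hr; CDK2/Cyclin E1 0.5 nM with 5-FAM-CDK7tide 2 μM, 2 mM MgCl2, 35 min; CDK7 35 min.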

HCC70 cells = test: Inhibition of proliferation of HCC70 cells (CyQUANT Direct, 72 hour); assay type: cell-based, human; details: read-out: Inhibition of Proliferation of HCC70 Cells (calculated IC50)
Summary of the method: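 Human triple-negative breast cancer cells grown in RPMI-1640 + 10% FBS at 37 °C, 5% CO2, treated with compounds from 4 μM to […] in 0.5 log steps. Proliferation over 72 h was read by CyQUANT Direct.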

[1] = target: T1, CDK12 (aa686-1082)/Cyclin K complex (Homo sapiens, UniProt Q9NYV4); test: CDK12 kinase inhibition assay (Caliper/LabChip EZ Reader); assay type: biochemical; details: CDK12 (aa686-1082)/Cyclin K 50 nM, ATP 2 mM, 3 hr at 27° C.
T1 construct: CDK12 (aa686-1082)/Cyclin K complex
T1 sequence (Q9NYV4 686-1082): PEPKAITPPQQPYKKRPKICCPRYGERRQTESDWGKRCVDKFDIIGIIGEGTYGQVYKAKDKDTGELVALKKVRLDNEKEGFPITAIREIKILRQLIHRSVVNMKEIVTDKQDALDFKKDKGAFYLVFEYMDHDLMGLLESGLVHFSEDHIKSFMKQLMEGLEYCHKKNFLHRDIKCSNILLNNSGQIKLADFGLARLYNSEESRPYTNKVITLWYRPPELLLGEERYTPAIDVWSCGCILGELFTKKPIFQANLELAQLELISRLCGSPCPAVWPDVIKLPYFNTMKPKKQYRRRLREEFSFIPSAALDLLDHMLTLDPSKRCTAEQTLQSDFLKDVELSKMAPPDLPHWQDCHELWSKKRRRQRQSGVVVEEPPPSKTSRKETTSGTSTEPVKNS
T1 sequence (O75909 whole entry partner, the tested form may be a part): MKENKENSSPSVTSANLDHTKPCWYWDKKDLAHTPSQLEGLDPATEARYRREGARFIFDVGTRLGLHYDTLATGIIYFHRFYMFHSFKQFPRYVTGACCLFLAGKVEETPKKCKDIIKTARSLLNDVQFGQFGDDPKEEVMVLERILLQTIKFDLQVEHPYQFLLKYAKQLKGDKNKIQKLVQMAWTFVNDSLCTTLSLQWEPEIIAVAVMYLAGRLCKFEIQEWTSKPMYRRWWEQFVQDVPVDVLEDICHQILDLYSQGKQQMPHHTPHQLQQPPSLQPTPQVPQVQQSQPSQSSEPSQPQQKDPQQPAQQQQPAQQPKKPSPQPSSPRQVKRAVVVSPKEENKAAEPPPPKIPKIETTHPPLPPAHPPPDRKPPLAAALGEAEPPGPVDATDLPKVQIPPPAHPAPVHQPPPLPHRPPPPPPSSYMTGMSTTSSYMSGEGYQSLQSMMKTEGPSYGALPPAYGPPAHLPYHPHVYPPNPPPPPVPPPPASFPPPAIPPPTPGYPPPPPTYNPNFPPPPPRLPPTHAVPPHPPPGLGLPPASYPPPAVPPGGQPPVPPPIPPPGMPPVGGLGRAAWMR
Summary of the method: as §1

[2] = target: CDK7/Cyclin H/MAT1 complex (Homo sapiens, UniProt P50613); test: CDK7 kinase inhibition assay (Caliper/LabChip EZ Reader); assay type: biochemical; details: CDK7/Cyclin H/MAT1 6 nM, ATP 2 mM, 35 min at 27° C.
Sequence of CDK7/Cyclin H/MAT1 complex (P50613 whole entry): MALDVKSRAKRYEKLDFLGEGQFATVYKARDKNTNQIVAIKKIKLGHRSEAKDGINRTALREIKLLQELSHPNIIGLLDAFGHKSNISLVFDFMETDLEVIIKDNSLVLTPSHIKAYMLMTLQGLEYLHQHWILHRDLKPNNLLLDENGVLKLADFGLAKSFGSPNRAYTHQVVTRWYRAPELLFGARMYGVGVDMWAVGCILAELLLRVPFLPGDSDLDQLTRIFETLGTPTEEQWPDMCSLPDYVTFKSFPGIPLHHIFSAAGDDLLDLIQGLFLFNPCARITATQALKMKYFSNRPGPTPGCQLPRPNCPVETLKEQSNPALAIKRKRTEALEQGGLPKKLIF
Sequence of CDK7/Cyclin H/MAT1 complex (P51946 whole entry partner): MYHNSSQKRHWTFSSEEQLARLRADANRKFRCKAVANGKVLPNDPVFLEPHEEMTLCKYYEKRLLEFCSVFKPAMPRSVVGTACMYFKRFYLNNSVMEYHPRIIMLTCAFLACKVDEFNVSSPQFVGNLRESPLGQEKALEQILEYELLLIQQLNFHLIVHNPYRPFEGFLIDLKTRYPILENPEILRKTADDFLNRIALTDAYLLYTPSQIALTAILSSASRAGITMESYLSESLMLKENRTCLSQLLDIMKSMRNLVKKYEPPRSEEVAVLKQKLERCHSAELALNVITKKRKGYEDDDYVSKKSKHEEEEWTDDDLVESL
Sequence of CDK7/Cyclin H/MAT1 complex (P51948 whole entry partner): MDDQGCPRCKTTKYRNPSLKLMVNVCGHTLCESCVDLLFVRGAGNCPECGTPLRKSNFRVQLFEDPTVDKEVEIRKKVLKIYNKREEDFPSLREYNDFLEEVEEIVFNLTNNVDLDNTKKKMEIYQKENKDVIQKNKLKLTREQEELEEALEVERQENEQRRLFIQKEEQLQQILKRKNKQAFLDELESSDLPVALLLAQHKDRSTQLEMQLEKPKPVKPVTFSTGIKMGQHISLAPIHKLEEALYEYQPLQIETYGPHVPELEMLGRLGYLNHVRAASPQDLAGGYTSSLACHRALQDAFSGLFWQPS
Summary of the method: as §1

CDK9/Cyclin T1 complex = CDK9/Cyclin T1 complex (Homo sapiens, UniProt P50750); test: CDK9 kinase inhibition assay (Caliper/LabChip EZ Reader); assay type: biochemical; details: CDK9/Cyclin T1 8 nM, ATP 2 mM, 15 min at 27° C.
Sequence of CDK9/Cyclin T1 complex (P50750 whole entry): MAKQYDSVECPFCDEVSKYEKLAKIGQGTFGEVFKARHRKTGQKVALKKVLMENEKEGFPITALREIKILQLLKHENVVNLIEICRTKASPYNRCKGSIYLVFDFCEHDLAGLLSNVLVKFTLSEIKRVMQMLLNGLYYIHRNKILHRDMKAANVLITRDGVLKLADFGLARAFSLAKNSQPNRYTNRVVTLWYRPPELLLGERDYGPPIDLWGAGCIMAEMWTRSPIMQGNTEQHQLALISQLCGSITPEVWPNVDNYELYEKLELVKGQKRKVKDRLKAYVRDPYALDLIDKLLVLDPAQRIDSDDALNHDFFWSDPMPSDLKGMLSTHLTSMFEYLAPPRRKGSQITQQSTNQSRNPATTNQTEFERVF
Sequence of CDK9/Cyclin T1 complex (O60563 whole entry partner): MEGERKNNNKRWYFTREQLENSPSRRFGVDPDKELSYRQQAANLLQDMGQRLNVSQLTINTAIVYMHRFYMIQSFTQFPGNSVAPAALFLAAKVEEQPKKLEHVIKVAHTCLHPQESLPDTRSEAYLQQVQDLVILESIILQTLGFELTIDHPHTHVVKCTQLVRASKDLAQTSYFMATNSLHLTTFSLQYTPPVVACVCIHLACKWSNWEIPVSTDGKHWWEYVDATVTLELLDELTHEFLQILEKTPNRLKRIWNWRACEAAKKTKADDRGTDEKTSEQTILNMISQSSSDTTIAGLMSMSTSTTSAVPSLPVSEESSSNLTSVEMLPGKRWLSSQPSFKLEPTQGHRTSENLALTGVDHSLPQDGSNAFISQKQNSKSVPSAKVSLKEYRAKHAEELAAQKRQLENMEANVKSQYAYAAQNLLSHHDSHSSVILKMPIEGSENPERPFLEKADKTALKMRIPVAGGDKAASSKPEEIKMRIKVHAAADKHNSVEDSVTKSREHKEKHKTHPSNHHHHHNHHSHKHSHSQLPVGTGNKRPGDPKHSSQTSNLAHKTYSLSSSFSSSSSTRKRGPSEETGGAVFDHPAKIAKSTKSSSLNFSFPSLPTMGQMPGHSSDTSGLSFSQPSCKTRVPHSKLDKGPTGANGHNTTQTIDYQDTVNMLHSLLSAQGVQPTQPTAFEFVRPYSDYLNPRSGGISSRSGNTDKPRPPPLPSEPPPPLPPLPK
Summary of the method: as §1

| SMILES | IC50 (CDK2/Cyclin E1 complex) | IC50 (HCC70 cells) | IC50 [1] | IC50 [2] | IC50 (CDK9/Cyclin T1 complex) |
| --- | --- | --- | --- | --- | --- |
| CC1(O)CCN(S(=O)(=O)c2ccc3c(-c4nc(NC5CCCNC5)ncc4C(F)(F)F)c[nH]c3c2)C1 (stereo not shown) [Compound 366] | 200 to 5000 nM | 1000 to 5000 nM | 200 to 5000 nM | 20 to 200 nM | 200 to 5000 nM |
| CCCc1cnc(N[C@H]2CCCNC2)nc1-c1c[nH]c2c(S(C)(=O)=O)c(C#N)ccc12 [Compound 367] | ≥ 5000 nM | 1000 to 5000 nM | ≥ 5000 nM | 20 to 200 nM | ≥ 5000 nM |
| N#Cc1ccc2c(-c3nc(NC4CNCC(F)C4)ncc3C(F)(F)F)c[nH]c2c1 (stereo not shown) [Compound 368] | ≥ 5000 nM | 1000 to 5000 nM | 200 to 5000 nM | 20 to 200 nM | ≥ 5000 nM |
| CCN1CC(Nc2ncc(C(F)(F)F)c(-c3c[nH]c4cc(S(C)(=O)=O)ccc34)n2)CC(C)(C)C1 (stereo not shown) [Compound 369] | ≥ 5000 nM | 100 to 1000 nM | ≥ 5000 nM | 20 to 200 nM | ≥ 5000 nM |
| N#Cc1ccc2c(-c3nc(N[C@@H]4CNC[C@H](O)C4)ncc3C(F)(F)F)c[nH]c2c1 [Compound 370] | ≥ 5000 nM | 100 to 1000 nM | 200 to 5000 nM | 20 to 200 nM | ≥ 5000 nM |
| CN(C)S(=O)(=O)c1cccc2c(-c3nc(NC4CCCNC4)ncc3C(F)(F)F)c[nH]c12 (stereo not shown) [Compound 371] | 200 to 5000 nM | < 100 nM | 200 to 5000 nM | < 20 nM | 200 to 5000 nM |
| CC1CCNCC1Nc1ncc(C(F)(F)F)c(-c2c[nH]c3ccccc23)n1 (stereo not shown) [Compound 372] | 200 to 5000 nM | 100 to 1000 nM | 200 to 5000 nM | 20 to 200 nM | 200 to 5000 nM |
| CC1CCNCC1Nc1ncc(C(F)(F)F)c(-c2c[nH]c3ccccc23)n1 (stereo not shown) [Compound 373] | ≥ 5000 nM | 1000 to 5000 nM | ≥ 5000 nM | 20 to 200 nM | ≥ 5000 nM |
| FC(F)Sc1ccc2c(-c3nc(NC4CCCNC4)ncc3C(F)(F)F)c[nH]c2c1 (stereo not shown) [Compound 374] | 200 to 5000 nM | < 100 nM | 20 to 200 nM | < 20 nM | 200 to 5000 nM |
| O=S(=O)(c1ccc2c(-c3nc(NC4CCCNC4)ncc3C(F)(F)F)c[nH]c2c1)C(F)F (stereo not shown) [Compound 375] | 200 to 5000 nM | 100 to 1000 nM | 200 to 5000 nM | < 20 nM | 200 to 5000 nM |
| CC1(C)CNC[C@@H](Nc2ncc(C(F)(F)F)c(-c3c[nH]c4cc(S(C)(=O)=O)ccc34)n2)C1 [Compound 376] | 200 to 5000 nM | 100 to 1000 nM | 200 to 5000 nM | 20 to 200 nM | ≥ 5000 nM |
| N#Cc1ccc2c(-c3nc(N[C@@H]4CCC5(CCC5)NC4)ncc3C(F)(F)F)c[nH]c2c1 [Compound 377] | ≥ 5000 nM | 100 to 1000 nM | 200 to 5000 nM | < 20 nM | 200 to 5000 nM |
| N#Cc1ccc2c(-c3nc(N[C@H]4CCC5(CCC5)NC4)ncc3C(F)(F)F)c[nH]c2c1 [Compound 378] | ≥ 5000 nM | 1000 to 5000 nM | ≥ 5000 nM | 20 to 200 nM | ≥ 5000 nM |
| CCP(=O)(CC)c1ccc2c(-c3nc(NC4CCCNC4)ncc3C(F)(F)F)c[nH]c2c1 (stereo not shown) [Compound 379] | ≥ 5000 nM | 1000 to 5000 nM | ≥ 5000 nM | 20 to 200 nM | ≥ 5000 nM |
| [O-][S+](c1ccc2c(-c3nc(NC4CCCNC4)ncc3C(F)(F)F)c[nH]c2c1)C(F)F (stereo not shown) [Compound 380] | 200 to 5000 nM | < 100 nM | 200 to 5000 nM | < 20 nM | 200 to 5000 nM |
| CS(=O)(=O)c1ccc2c(-c3nc(NC4CCCN(C5CC5)C4)ncc3C(F)(F)F)c[nH]c2c1 (stereo not shown) [Compound 381] | ≥ 5000 nM | 1000 to 5000 nM | 200 to 5000 nM | 20 to 200 nM | ≥ 5000 nM |
| CC1(C)CNCC(Nc2ncc(Cl)c(-c3c[nH]c4c(S(C)(=O)=O)c(C#N)ccc34)n2)C1 (stereo not shown) [Compound 382] | 200 to 5000 nM | < 100 nM | 200 to 5000 nM | < 20 nM | 200 to 5000 nM |
